In assay [1] the target is Mu-type opioid receptor (Homo sapiens) (UniProt P35372). In words: Selectivity determined for mu opioid receptor to that of delta opioid receptor.
Assay [2] concerns the target T1, Kappa-type opioid receptor (Cavia porcellus, UniProt P41144). The assay can be described thus: Binding affinity for kappa opioid receptor by displacing U-69,593 was determined in [35S]-GTP gamma-S binding assay; Inactive. In kind it is functional. In general terms: GTPγS resists hydrolysis and so accumulates on activated G proteins.
Assay [3] concerns the target T2, Mu-type opioid receptor (Cavia porcellus, UniProt P97266). The assay can be described thus: Binding affinity for mu opioid receptor by displacing DAMGO was determined in [35S]-GTP gamma-S binding assay; Inactive. In kind it is functional.
In assay [4] the target is Mu-type opioid receptor (Homo sapiens) (UniProt P35372). The assay can be described thus: Selectivity for mu to that of delta opioid receptor was determined in [35S]-GTP gamma-S binding assay.
The target of assay [5] is T2, Mu-type opioid receptor. In words: Binding affinity for mu opioid receptor by displacing DAMGO was determined in [35S]GTP gamma-S binding assay. The assay is classed as functional.
For assay [6], the target named is T1, Kappa-type opioid receptor. In words: Binding affinity for kappa opioid receptor by displacing U-69,593 was determined in [35S]GTP gamma-S binding assay. The assay is classed as functional.

Structures are written as SMILES.

Chain of Mu-type opioid receptor (Homo sapiens) (P35372 whole entry): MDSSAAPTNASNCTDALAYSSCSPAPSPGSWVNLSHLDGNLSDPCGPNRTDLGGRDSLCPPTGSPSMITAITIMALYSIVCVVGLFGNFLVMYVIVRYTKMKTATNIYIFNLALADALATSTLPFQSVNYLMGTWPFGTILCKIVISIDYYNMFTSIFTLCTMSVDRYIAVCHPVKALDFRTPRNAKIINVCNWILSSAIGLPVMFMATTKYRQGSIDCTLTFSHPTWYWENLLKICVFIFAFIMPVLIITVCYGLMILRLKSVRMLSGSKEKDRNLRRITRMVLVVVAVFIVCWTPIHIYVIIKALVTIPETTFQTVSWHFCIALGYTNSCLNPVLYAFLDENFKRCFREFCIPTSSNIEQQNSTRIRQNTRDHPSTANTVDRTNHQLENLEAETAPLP
T1 sequence (P41144 whole entry): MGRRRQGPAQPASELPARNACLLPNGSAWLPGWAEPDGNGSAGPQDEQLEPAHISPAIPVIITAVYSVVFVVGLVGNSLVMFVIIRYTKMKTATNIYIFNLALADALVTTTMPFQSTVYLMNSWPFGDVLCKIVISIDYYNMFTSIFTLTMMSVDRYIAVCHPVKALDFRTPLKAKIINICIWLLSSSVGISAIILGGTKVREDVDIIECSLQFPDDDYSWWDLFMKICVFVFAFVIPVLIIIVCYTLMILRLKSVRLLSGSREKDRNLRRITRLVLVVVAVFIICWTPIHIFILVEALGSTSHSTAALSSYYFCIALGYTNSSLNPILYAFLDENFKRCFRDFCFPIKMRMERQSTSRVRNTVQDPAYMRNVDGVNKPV
T2 sequence (P97266 whole entry): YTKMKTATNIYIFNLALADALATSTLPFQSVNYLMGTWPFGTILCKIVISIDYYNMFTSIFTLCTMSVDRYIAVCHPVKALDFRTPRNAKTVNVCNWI

With `C[C@H]1c2c([nH]c3ccccc23)[C@@H]2Oc3c(O)ccc4c3C23CCN(CC2CC2)C(C4)C13` (some centres not stated), the Ratio in assay [1] stood at 29.

Take `CCCC[C@H]1c2c([nH]c3ccccc23)[C@@H]2Oc3c(OC)ccc4c3C23CCN(C)C(C4)C13` (some centres not stated): the Ratio in assay [1] was more than 12. In addition, the inhibition constant Ki in assay [2] was more than 350 nM; at Mu-type opioid receptor [3] it was more than 600 nM.

Take `COc1ccc2c3c1O[C@H]1c4[nH]c5ccccc5c4CC4C(C2)N(C)CCC341` (some centres not stated): the Ratio in assay [1] is more than 53. The Ki is more than 350 nM in assay [2] and more than 600 nM on Mu-type opioid receptor [3].

For the compound `COc1ccc2c3c1O[C@H]1c4[nH]c5ccccc5c4[C@H](C)C4C(C2)N(C)CCC341` (some centres not stated), in assay [1], the Ratio is more than 177. In addition, the inhibition constant Ki is more than 350 nM in assay [2] and more than 600 nM on Mu-type opioid receptor [3].

For the compound `CN1CC[C@]23c4c5ccc(O)c4O[C@H]2c2[nH]c4ccccc4c2C[C@H]3[C@H]1C5`, the Ratio in assay [4] amounted to 14; in assay [1] it was 296. Also, the inhibitory constant (Ki) on Mu-type opioid receptor [5] amounted to 202 nM; in assay [6] it was 731 nM.

`C[C@H]1c2c([nH]c3ccccc23)[C@@H]2Oc3c(O)ccc4c3C23CCN(C)C(C4)C13` (some centres not stated): the inhibitory constant (Ki) in assay [6] was 398 nM; on Mu-type opioid receptor [3], more than 600 nM. Moreover, the Ratio in assay [1] is 322.

Take `C=CC(C)N1CCC23c4c5ccc(O)c4O[C@H]2c2[nH]c4ccccc4c2[C@H](C)C3C1C5` (some centres not stated): in assay [1], the Ratio amounted to 120.

Take `CCCC[C@H]1c2c([nH]c3ccccc23)[C@@H]2Oc3c(O)ccc4c3C23CCN(C)C(C4)C13` (some centres not stated): the Ratio in assay [4] is 12; in assay [1], 50. Besides, the inhibition constant Ki at Mu-type opioid receptor [5] worked out at 561 nM; in assay [6], 272 nM.

One may read the Ki as the dissociation constant of the complex between target and ligand, obtained from inhibition or displacement. Read a high Ki as weaker binding.

For the origin of these results see ChEMBL document CHEMBL1135961, “Synthesis and biological activity of 8beta-substituted hydrocodone indole and hydromorphone indole derivatives” (Bioorg Med Chem Lett, 2002).
